Results on 2 compounds are retold here after paper PMC12645137 (Current Neuropharmacology, 2025).

In assay [1] the target is T1, BChE (source equine serum) (Equus caballus, UniProt P81908).
T1 construct: from tissue; host or cells: equine serum
The experiment in a line: biochemical. As to conditions: read-out: % BChE Inhibition. How it is done:
The cholinesterase inhibitory potentials of our synthesized compounds were evaluated against cholinesterase enzymes (AChE/BChE). The AChE (source Electric eel) and BChE (source equine serum) were used in the study following previously published Ellman's assay. The assay basic principle involves the hydrolytic breakdown of acetylthiocholine iodide (ATChI) by AChE and butyryl thiocholine iodide (BTChI) by BChE enzymes, leading to the formation of an intermediate compound which is subsequently complexed with 5,5-dithio bis nitrobenzoic acid (DTNB) to form a UV-detectable compound. The yellowish color product indicates the hydrolysis of ATChI and BTChI substrates by respective enzymes, which were analyzed at 412 nm using a UV-visible spectrophotometer. […] A test sample of 1000 µl was taken in a cuvette, to which enzyme solution (50 µl) and DTNB reagent of 50 µL were added. The AChE (0.03 U/ml) and BChE (0.01 U/ml) solutions were prepared in 0.1 M phosphate buffer having pH 8.0. The ATChI and BTChI substrate solutions (0.0005 M) and 0.0002273 M solution of DTNB were prepared using distilled water and stored at 8°C before further use. For 15 minutes, the solution mixture was incubated at 30 °C, after which a solution of the substrate (50 µl) was added and then subjected to spectroscopic analysis. Using a double beam spectrophotometer, the sample absorbance was measured for 4 minutes at 412 nm beside the time of reaction. […] All values were taken in triplicate under the same conditions.
Enzymatic activity percentage=V/Vmaxx100
V is the reaction rate in the inhibitor's presence, whereas Vmax is the reaction rate in the absence of the inhibitor.

Assay [2] relates to scopolamine-induced amnesic mice. The experiment in a line: Elevated Plus Maze (EPM) test in scopolamine-induced amnesic animals. The assay is classed as in vivo, albino mice. The settings on record: scopolamine 1 mg/kg amnesic mice, i.p., AN-1 10 mg/kg, progesterone 10 mg/kg, galantamine 8 mg/kg; for retention transfer latency (RTL): 24 h after training, disease group 67 sec; for initial transfer latency (ITL): disease group 73 sec. Here is the method:
(§1) The mice were divided into the following five groups, and each group had six animals. The standard drug and test samples were carefully administered to the mice via the intraperitoneal route.
(§2) Group IV (Progesterone treated group) = Animals treated with 10 mg/kg progesterone and scopolamine 1 mg/kg.
(§3) Group V (Test compound group) = Animals received 10 mg/kg progesterone derivative (AN-1) and 1 mg/kg scopolamine.
The EPM behavioral test was performed to assess the learning abilities and long-term spatial memory of the experimental animals. The EPM apparatus has the appearance of a plus sign which was 50 cm elevated from the ground. The apparatus has two open arms (50 cm long and 10 cm wide), and two closed arms having dimensions of 20, 50, and 10 cm in height, length, and width, respectively. The open and closed arms were joined with a 10 × 10 central square.
After 30 minutes of the intraperitoneal drug administration on the seventh day of treatment, mice of each group were placed over the open arm end of the EPM apparatus in such a way that their faces were away from the midpoint of the apparatus. Transfer latency (TL) is the time a mouse takes to enter the closed arm entirely with all its legs from the open arm of the apparatus. The time of initial transfer latency (ITL) was observed, and then the animals were allowed freely for 1.5 minutes to search the EPM apparatus.
After twenty-four hours of the training period, test trials were conducted to determine the retention of tasks that were learnt during training. Retention transfer latency (RTL) was measured by placing the experimental mice at the open end of the apparatus, ensuring that they faced away from its midpoint. The mouse was allowed to enter the closed arm entirely with all its legs. A decline in TL compared to ITL indicated an improvement in memory.

Assay [3] shares this test system. Nature of the assay: Y-Maze test in scopolamine-induced amnesic animals. The assay is classed as in vivo, albino mice. The settings on record: scopolamine 1 mg/kg amnesic mice; i.p.; AN-1 10 mg/kg, progesterone 10 mg/kg, galantamine 8 mg/kg; disease group 22.27%. How it is done: as §1, §2, §3
To determine the effect of synthesized compounds on short-term learning and memory of experimental mice, a Y-Maze test was used. The Y-Maze apparatus consists of three arms that are fixed at 120° angle from each other and have 30 cm length, 20 cm height, and 8 cm width dimensions. After 30 minutes of giving test compounds intraperitoneally, the mouse was positioned at the arm end in such a way that it faced away from the midpoint of the apparatus and was permitted to search the apparatus for five minutes freely. The arm entry sequence and number by each mouse were recorded for 5 minutes using a digital camera. Alternation is defined as the successive entry into 3 dissimilar arms by a mouse (i.e., CBA, BCA, ABC). When the back paws of a mouse were found inside an arm wholly, the arm entry was considered completed. Seventy percent v/v ethanol was used for cleaning the apparatus and to avoid smell cues. The spontaneous alternation performance (SAP) percentage was calculated using the following formula [37]:
% alternation = [(alternations number) / (total arm entries number – 2)] × 100

Assay [4] shares this test system. Nature of the assay: Open field test (OFT) in scopolamine-induced amnesic animals. Type of assay: in vivo, albino mice. As to conditions: i.p., AN-1 10 mg/kg, progesterone 10 mg/kg, galantamine 8 mg/kg; for number of lines crossed: 5 min, disease group 26.33; for number of lines crossed / time spent in the central area: scopolamine 1 mg/kg amnesic mice; for time spent in the central area: 30 min exploration, disease group 4.66; for time spent in the peripheral area: versus scopolamine/disease group. Here is the method:
as §1, §2, §3
Open field behavioral test was carried out for the assessment of locomotor activities like the number of line crossing. The apparatus was made from plywood having 81×81×28.5 cm dimensions. Sixteen squares (20×20 cm) were made on the base of the apparatus by drawing four horizontal and four vertical lines. […] Furthermore, exploration time spent by mice in central and peripheral areas of the apparatus was also recorded by allowing the mice for 30 minutes to explore the apparatus.

T1 sequence (P81908 whole entry): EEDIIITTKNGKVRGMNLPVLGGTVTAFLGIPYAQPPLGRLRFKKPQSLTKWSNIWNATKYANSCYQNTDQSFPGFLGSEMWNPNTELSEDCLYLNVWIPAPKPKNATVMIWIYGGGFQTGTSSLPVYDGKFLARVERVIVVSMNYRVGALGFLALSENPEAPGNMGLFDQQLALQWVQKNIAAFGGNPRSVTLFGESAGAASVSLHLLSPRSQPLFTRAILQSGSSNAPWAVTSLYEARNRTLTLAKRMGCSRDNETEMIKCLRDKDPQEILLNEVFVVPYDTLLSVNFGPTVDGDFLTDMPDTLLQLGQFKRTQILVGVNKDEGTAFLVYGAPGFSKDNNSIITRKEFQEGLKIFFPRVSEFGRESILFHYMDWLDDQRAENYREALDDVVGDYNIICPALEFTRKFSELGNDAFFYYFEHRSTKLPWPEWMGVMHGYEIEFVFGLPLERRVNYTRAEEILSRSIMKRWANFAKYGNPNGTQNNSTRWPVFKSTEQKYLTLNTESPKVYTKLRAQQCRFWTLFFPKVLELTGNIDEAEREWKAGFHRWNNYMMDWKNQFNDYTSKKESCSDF

`COc1ccc2c3c1O[C@H]1C[C@@H](O)C=C[C@@]31CCN(C)C2` [Galantamine, reference compound]: in assay [1], the inhibition at 62.5 µg/mL is 67.2%, the inhibition at 125 µg/mL was 72.9%, the inhibition at 250 µg/mL is 77.4% and the inhibition at 500 µg/mL was 84.4%. Further, the inhibition at 1000 µg/mL in assay [1] is 89.5 ± 1.93%. For the same compound, in assay [2], the “retention transfer latency (RTL)” value was 38.33 s and the “initial transfer latency (ITL)” value stood at 47.33 s. Also, the spontaneous alternation in assay [3] was found to be 47.56%. Besides, in assay [4], the “number of lines crossed” value turned out to be 50.33, the “time spent in the central area” value amounted to 13 mint and the “time spent in the peripheral area” value was “significantly (p<0.01) less time in the peripheral area”.
For `CC(=O)[C@H]1CC[C@H]2[C@@H]3CCC4=CC(=O)CC[C@]4(C)[C@H]3CC[C@]12C` [progesterone], in assay [2], the “retention transfer latency (RTL)” value worked out at 50.33 s and the “initial transfer latency (ITL)” value is 56.5 s. The compound further had a spontaneous alternation in assay [3] of 40.001%. For the same compound, in assay [4], the “number of lines crossed” value amounted to 42, the “time spent in the central area” value was found to be 9.66 mint and the “time spent in the peripheral area” value is listed as “significant (p˂0.05) decline in time spent peripherally”.
